# Laboratory results reported in publication PMC12827894, “Structure-guided design of picomolar-level macrocyclic TRPC5 channel inhibitors with antidepressant activity” (Acta Pharmaceutica Sinica. B, 2025).
# Where a SMILES comes first, the peptide text is derived from it. Bridges are numbered along the chain shown (N, C = ends).
# Tests used:
# [1] = target: T1, IKs (Homo sapiens, UniProt P51787); experiment: SafetyOne44 panel ion channels: IKs; assay type: cell-based
# T1 construct: ICE Bioscience ICESTP SafetyOne44 Panel
# [2] = target: T2, nAChRα4β2 (Homo sapiens, UniProt P17787+P43681); experiment: SafetyOne44 panel ion channels: nAChRα4β2; assay type: cell-based; conditions: nAChRα4β2, antagonist mode; read-out: Antagonist Reference Compounds IC50
# T2 construct: ICE Bioscience ICESTP SafetyOne44 Panel
# [3] = target: T3, NET (Homo sapiens, UniProt P23975); experiment: SafetyOne44 panel: NET; assay type: cell-based
# T3 construct: ICE Bioscience ICESTP SafetyOne44 Panel
# [4] = target: T4, DAT (Homo sapiens, UniProt Q01959); experiment: SafetyOne44 panel: DAT; assay type: cell-based; conditions: read-out: Antagonist Reference Compound IC50
# T4 construct: purchased ICE Bioscience ICESTP™ SafetyOne44 Panel
# [5] = target: T5, 5-HTT (Homo sapiens, UniProt P31645); experiment: SafetyOne44 panel: 5-HTT; assay type: cell-based; conditions: read-out: Antagonist Reference Compound IC50
# T5 construct: purchased ICE Bioscience ICESTP™ SafetyOne44 Panel
# [6] = target: T6, NR1/NR2B (Homo sapiens, UniProt Q05586+Q13224); experiment: SafetyOne44 panel ion channels: NR1/NR2B; assay type: cell-based
# T6 construct: ICE Bioscience ICESTP SafetyOne44 Panel
# [7] = target: T7, ETA (Homo sapiens, UniProt P25101); experiment: SafetyOne44 panel: ETA; assay type: cell-based
# T7 construct: purchased ICE Bioscience ICESTP™ SafetyOne44 Panel
# T7 sequence (P25101 21-427): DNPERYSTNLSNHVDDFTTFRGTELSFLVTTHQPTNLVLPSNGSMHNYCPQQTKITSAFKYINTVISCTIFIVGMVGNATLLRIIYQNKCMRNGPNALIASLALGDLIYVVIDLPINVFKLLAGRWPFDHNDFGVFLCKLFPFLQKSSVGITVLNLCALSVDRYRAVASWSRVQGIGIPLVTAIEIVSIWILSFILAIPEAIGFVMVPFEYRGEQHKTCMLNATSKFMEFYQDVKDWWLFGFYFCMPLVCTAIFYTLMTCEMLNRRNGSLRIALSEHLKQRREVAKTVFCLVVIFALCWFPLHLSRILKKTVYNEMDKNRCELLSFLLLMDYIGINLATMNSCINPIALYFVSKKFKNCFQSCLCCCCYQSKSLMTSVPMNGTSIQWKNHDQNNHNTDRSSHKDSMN
# [8] = target: T8, CCK1 (Homo sapiens, UniProt P32238); experiment: SafetyOne44 panel: CCK1; assay type: cell-based; conditions: CCK1, antagonist mode; read-out: Antagonist Reference Compound IC50
# T8 construct: purchased ICE Bioscience ICESTP™ SafetyOne44 Panel
# T8 sequence (P32238 1-428): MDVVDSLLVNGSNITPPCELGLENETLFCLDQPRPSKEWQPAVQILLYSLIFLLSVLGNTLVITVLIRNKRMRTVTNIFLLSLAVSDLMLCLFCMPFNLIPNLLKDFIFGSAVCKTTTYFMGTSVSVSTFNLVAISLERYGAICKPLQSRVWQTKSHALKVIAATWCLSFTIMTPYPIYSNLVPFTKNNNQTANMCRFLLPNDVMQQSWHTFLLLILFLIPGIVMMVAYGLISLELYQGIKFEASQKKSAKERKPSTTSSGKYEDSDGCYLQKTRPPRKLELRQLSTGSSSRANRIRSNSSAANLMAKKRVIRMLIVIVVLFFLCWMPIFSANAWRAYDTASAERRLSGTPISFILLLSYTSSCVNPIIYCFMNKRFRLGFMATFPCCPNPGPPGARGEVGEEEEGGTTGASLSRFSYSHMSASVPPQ
# [9] = target: T9, H2 (Homo sapiens, UniProt P25021); experiment: SafetyOne44 panel: H2; assay type: cell-based; conditions: H2, antagonist mode; read-out: Antagonist Reference Compound IC50
# T9 construct: purchased ICE Bioscience ICESTP™ SafetyOne44 Panel
# [10] = target: T10, 5-HT2B (Homo sapiens, UniProt P41595); experiment: cell-based; assay type: cell-based; conditions: read-out: Antagonist Reference Compound IC50
# T10 construct: purchased ICE Bioscience ICESTP SafetyOne44 Panel
# [11] = target: T11, 5-HT1B (Homo sapiens, UniProt P28222); experiment: cell-based; conditions: agonist mode, read-out: Agonist Reference Compound EC50
# T11 construct: purchased ICE Bioscience ICESTP SafetyOne44 Panel
# [12] = target: T12, LCK (Homo sapiens, UniProt P06239); experiment: biochemical; conditions: read-out: Antagonist Reference Compound IC50
# T12 construct: purchased ICE Bioscience ICESTP™ SafetyOne44 Panel
# [13] = target: T13, TRPC5 (Homo sapiens, UniProt Q9UL62); experiment: cell-based; conditions: for IC50: HEK293T, 100 nmol/L Englerin A, read-out: IC50, inhibition of TRPC5, calcium flux assay; for TRPC5 inhibitory activity in words (SAR): relative to compound 6
# T13 sequence (Q9UL62 1-973): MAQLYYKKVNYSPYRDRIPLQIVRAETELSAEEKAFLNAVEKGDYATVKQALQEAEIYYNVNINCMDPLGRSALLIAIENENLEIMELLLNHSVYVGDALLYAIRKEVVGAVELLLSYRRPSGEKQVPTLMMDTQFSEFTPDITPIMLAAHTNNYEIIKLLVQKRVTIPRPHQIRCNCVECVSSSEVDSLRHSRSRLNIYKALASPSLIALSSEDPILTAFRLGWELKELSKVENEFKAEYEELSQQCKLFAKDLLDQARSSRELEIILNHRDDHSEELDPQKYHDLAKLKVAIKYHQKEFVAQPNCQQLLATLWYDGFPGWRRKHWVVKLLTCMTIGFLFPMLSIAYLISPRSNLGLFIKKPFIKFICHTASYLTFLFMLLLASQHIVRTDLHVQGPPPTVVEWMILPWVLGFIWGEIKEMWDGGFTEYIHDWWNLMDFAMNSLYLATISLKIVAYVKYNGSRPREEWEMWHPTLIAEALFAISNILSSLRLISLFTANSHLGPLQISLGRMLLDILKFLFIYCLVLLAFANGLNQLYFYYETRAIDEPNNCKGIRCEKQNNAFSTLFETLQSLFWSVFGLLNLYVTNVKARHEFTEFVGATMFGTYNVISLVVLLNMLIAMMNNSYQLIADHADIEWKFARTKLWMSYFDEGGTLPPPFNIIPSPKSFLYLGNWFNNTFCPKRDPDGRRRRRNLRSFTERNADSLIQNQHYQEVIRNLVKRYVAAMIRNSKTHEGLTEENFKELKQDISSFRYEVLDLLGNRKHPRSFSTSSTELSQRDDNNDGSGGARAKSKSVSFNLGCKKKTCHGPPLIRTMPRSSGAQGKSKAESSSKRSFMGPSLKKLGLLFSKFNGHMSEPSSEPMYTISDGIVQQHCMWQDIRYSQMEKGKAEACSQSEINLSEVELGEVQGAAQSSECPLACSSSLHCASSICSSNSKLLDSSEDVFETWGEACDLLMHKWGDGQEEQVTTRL
# T6 sequence (Q13224 27-1484, other chains not shown): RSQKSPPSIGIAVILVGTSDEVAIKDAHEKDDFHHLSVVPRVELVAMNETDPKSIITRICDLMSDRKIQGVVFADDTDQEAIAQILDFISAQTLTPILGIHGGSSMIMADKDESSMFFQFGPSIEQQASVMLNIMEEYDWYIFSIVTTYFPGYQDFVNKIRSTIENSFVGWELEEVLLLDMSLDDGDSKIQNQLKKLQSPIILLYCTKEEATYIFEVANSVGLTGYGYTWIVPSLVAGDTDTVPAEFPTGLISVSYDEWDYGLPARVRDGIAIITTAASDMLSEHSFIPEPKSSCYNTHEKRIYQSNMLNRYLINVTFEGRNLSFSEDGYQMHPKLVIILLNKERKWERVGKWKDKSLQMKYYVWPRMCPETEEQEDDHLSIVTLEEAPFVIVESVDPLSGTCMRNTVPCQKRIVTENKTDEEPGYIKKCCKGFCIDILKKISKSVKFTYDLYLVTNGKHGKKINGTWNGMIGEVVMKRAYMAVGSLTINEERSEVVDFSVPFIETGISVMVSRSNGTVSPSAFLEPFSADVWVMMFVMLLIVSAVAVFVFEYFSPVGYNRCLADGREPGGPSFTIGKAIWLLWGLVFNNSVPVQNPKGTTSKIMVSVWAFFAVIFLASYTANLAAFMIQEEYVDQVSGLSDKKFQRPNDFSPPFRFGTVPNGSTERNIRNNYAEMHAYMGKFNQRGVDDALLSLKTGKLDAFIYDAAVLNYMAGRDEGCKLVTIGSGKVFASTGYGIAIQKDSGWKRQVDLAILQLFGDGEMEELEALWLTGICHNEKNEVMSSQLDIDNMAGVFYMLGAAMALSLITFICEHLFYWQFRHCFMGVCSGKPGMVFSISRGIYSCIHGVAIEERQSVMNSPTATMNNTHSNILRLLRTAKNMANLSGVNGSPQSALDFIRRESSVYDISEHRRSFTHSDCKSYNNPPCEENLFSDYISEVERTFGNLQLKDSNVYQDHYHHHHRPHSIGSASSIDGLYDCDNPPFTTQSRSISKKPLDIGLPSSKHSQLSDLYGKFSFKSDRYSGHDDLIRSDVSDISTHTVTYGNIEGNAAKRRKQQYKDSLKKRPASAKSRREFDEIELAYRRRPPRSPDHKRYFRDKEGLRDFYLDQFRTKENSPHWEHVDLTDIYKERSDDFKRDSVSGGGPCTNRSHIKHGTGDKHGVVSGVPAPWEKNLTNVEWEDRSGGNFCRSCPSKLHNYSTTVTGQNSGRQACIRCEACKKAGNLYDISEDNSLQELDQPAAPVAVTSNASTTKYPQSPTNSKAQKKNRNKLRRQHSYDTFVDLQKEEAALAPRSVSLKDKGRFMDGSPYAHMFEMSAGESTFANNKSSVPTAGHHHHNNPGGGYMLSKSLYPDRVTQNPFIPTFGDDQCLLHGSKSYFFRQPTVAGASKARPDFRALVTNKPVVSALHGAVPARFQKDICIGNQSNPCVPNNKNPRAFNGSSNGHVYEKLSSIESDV
# T12 sequence (P06239 whole entry): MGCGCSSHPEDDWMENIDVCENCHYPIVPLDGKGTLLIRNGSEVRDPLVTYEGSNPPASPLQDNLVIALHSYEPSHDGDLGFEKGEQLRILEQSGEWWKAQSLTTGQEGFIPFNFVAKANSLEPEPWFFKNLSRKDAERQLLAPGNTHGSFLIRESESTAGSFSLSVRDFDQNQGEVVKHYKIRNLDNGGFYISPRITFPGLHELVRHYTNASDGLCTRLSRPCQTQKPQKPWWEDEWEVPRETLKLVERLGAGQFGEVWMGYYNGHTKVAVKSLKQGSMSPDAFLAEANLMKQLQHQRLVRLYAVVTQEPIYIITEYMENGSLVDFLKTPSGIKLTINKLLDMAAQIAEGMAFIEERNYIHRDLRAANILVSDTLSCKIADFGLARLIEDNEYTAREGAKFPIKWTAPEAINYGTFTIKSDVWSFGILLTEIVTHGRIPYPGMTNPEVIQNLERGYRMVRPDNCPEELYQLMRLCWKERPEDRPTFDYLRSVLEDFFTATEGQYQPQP
# T5 sequence (P31645 whole entry): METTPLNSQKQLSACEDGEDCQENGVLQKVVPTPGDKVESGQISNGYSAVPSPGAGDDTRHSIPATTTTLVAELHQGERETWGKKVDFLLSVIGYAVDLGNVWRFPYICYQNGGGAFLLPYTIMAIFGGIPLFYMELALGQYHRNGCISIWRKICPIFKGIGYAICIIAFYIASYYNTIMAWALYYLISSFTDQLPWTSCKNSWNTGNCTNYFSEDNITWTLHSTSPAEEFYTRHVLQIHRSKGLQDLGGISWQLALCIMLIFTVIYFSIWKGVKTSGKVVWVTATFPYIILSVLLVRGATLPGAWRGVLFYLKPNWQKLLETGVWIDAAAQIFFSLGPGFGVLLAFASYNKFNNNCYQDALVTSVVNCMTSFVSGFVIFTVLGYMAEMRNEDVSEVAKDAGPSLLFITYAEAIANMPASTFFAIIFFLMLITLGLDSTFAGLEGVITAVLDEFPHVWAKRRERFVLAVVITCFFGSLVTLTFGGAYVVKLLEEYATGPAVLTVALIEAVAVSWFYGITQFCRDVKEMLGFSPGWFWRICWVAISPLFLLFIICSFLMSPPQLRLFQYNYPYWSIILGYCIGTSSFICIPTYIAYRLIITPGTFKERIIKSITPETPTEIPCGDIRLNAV
# T11 sequence (P28222 whole entry): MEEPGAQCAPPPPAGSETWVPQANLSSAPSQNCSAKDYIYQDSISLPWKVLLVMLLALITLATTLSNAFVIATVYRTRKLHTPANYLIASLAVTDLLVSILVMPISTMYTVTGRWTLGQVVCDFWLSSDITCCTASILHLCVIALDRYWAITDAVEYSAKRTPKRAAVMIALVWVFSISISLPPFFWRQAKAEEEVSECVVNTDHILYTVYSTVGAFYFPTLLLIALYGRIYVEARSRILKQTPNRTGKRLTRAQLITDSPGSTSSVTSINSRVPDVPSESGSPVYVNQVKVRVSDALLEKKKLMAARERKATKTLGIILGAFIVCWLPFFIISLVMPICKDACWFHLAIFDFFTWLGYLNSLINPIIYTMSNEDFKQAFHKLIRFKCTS
# T4 sequence (Q01959 whole entry): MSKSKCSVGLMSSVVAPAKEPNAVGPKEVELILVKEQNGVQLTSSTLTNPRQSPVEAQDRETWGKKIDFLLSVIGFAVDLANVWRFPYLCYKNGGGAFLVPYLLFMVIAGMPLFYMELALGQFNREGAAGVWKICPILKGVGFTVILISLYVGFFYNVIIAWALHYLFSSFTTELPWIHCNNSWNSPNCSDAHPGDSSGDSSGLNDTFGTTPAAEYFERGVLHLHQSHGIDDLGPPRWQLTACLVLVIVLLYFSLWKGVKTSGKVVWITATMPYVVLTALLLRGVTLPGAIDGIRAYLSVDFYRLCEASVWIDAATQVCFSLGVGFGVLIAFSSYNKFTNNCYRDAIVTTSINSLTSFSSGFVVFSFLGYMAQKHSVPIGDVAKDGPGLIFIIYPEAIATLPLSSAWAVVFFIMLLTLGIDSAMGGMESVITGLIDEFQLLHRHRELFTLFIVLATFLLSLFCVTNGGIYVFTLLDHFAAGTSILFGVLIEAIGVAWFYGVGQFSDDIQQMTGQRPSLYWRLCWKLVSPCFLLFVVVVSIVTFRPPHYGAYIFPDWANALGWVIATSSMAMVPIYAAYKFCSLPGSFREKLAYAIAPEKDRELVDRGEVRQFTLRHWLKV
# T9 sequence (P25021 whole entry): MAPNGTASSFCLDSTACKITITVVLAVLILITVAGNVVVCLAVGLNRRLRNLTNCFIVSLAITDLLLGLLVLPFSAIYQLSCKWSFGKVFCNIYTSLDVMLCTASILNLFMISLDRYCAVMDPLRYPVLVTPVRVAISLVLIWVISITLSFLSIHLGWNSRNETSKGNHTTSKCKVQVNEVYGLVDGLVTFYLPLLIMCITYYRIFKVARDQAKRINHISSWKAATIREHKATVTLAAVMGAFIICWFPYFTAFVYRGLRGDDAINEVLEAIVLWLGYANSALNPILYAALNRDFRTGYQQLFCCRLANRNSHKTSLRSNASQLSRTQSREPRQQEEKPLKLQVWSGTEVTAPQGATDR
# T1 sequence (P51787 whole entry): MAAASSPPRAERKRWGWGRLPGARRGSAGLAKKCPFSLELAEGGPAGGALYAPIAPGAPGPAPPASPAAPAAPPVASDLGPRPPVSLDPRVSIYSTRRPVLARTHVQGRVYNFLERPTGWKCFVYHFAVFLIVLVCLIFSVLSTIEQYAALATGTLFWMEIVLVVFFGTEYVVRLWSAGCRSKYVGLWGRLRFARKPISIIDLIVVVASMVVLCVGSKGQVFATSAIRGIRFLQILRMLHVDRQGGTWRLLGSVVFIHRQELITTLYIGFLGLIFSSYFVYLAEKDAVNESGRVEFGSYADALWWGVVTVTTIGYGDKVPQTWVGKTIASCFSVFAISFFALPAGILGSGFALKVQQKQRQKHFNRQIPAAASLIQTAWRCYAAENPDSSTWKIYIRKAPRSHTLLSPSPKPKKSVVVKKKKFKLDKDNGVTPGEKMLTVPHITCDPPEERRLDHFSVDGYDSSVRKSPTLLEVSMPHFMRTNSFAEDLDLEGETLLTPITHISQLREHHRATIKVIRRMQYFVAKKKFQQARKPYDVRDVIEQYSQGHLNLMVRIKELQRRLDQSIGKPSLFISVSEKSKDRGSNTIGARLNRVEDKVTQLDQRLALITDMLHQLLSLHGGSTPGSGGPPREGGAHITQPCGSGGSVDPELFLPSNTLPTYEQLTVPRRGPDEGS
smiles,measurement,setting,value
"CCS(=O)(=O)N(C)[C@H]1c2cc(C#N)ccc2OC(C)(C)[C@@H]1O [293B, reference compound]",Antagonist Reference Compounds % Inh,[1],90.96%
"CCN(CC)CCOC(=O)C(c1ccccc1)c1ccccc1 [Adiphenine, reference compound]",IC50,[2],547 nM
"c1ccc2cc([C@]34CNC[C@H]3C4)ccc2c1 [Centanafadine, reference compound]",IC50,[3],139 nM
same,IC50,[4],144 nM
same,IC50,[5],126 nM
"NC(CCCP(=O)(O)O)C(=O)O [D-AP5, reference compound]",Antagonist Reference Compounds % Inh,"[6]; NR1/NR2B, antagonist mode",87.44%
"CC[C@H](C)[C@H](NC(=O)[C@H](CC(=O)O)NC(=O)[C@H](CC(C)C)NC(=O)[C@H](Cc1cnc[nH]1)NC(=O)[C@@H]1CSSC[C@H](N)C(=O)N[C@@H](CO)C(=O)N[C@H]2CSSC[C@H](NC(=O)[C@H](CCC(=O)O)NC(=O)[C@H](CCCCN)NC(=O)[C@H](CC(=O)O)NC(=O)[C@H](CC(C)C)NC(=O)[C@H](Cc3c[nH]c4ccccc34)NC(=O)[C@H](CO)NC(=O)[C@H](CO)NC2=O)C(=O)N[C@@H](C(C)C)C(=O)N[C@@H](Cc2ccc(O)cc2)C(=O)N[C@@H](Cc2ccccc2)C(=O)N1)C(=O)N[C@H](C(=O)N[C@@H](Cc1c[nH]c2ccccc12)C(=O)O)[C@@H](C)CC [Endothelin 2, reference compound] (H-CSCSSWLDKECVYFCHLDIIW-OH; disulfide 1-15, 3-11)",EC50,[7],1.89 nM
"NCC(=O)O [Glycine, reference compound]",EC50,[6]; read-out: Agonist Reference Compounds EC50,132 nM
"CCCCCN(CCCOC)C(=O)C(CCC(=O)O)NC(=O)c1ccc(Cl)c(Cl)c1 (stereo not drawn) [Loxiglumide, reference compound]",IC50,[8],353 nM
"CCCNS(=O)(=O)Nc1ncnc(OCCOc2ncc(Br)cn2)c1-c1ccc(Br)cc1 [Macitentan, reference compound]",IC50,"[7]; ETA, antagonist mode, read-out: Antagonist Reference Compound IC50",3.29 nM
"CNC(=C[N+](=O)[O-])NCCSCc1csc(CN(C)C)n1 [Nizatidine, reference compound]",IC50,[9],112 nM
"CC(C)c1cc(-c2ccc(F)c3ccccc23)nc(N)n1 [RS-127445, reference compound]",IC50,[10],0.972 nM
"COc1ccc2[nH]cc(C3=CCNCC3)c2c1 [RU 24969, reference compound]",EC50,[11],4.25 nM
"Cc1cc(-c2cc(O)ccc2Cl)cc2nnc(Nc3ccc(OCCN4CCCC4)cc3)nc12 [TG 100572, reference compound]",IC50,[12],0.76 nM
O=c1c2c3nc(n2Cc2ccc(Cl)cc2)Oc2cccc(c2)OCCCCCn3c(=O)n1CCCO [compound 5],IC50,[13],28.4 nM
O=c1c2c3nc(n2Cc2ccc(Cl)cc2)Oc2cccc(c2)OCCCCCCn3c(=O)n1CCCO [compound 6],IC50,[13],1.1 nM
O=c1c2c3nc(n2Cc2ccc(Cl)cc2)Oc2cccc(c2)OCCCCCCCn3c(=O)n1CCCO [compound 7],IC50,[13],19.2 nM
O=c1c2c3nc(n2Cc2ccc(Cl)cc2)Oc2cc(ccc2Cl)OCCCCCCn3c(=O)n1CCCO [compound 8],IC50,[13],89.1 nM
same,fold decrease in activity (vs compound 6),"[13]; calcium flux, SAR",about 90 fold
O=c1c2c3nc(n2Cc2ccc(Cl)cc2)Oc2ccc(Cl)c(c2)OCCCCCCn3c(=O)n1CCCO [compound 9],IC50,[13],97.5 nM
same,fold decrease in activity (vs compound 6),"[13]; calcium flux, SAR",about 90 fold
O=c1c2c3nc(n2Cc2ccc(Cl)cc2)Oc2cncc(c2)OCCCCCCn3c(=O)n1CCCO [compound 11],IC50,[13],0.08 nM
same,fold increase in activity (vs compound 6),"[13]; calcium flux, SAR",about 10 fold
CCCn1c2nc3c1c(=O)n(CCCO)c(=O)n3CCCCCCOc1cccc(c1)O2 [compound 12],IC50,[13],3500 nM
same,fold decrease in activity (vs compound 6),"[13]; calcium flux, SAR",over 1000 fold
O=c1c2c3nc(n2CCC(F)(F)F)Oc2cccc(c2)OCCCCCCn3c(=O)n1CCCO [compound 13],IC50,[13],1200 nM
same,fold decrease in activity (vs compound 6),"[13]; calcium flux, SAR",over 1000 fold
O=c1c2c3nc(n2Cc2nccs2)Oc2cccc(c2)OCCCCCCn3c(=O)n1CCCO [compound 14],IC50,[13],1500 nM
same,fold decrease in activity (vs compound 6),"[13]; calcium flux, SAR",over 1000 fold
O=c1c2c3nc(n2Cc2ncco2)Oc2cccc(c2)OCCCCCCn3c(=O)n1CCCO [compound 15],IC50,[13],> 10000 nM
same,fold decrease in activity (vs compound 6),"[13]; calcium flux, SAR",over 1000 fold
O=c1c2c3nc(n2Cc2cccc(Cl)c2)Oc2cccc(c2)OCCCCCCn3c(=O)n1CCCO [compound 16],IC50,[13],1.8 nM
same,TRPC5 inhibitory activity in words (SAR),[13]; calcium flux,tolerated
O=C1NCCCCCn2c(=O)n(CCCO)c(=O)c3c2nc(n3Cc2ccc(Cl)cc2)Oc2cccc1c2 [compound 17],IC50,[13],> 10000 nM
same,TRPC5 inhibitory activity in words (SAR),[13]; calcium flux,completely abolishing the activity
O=c1c2c3nc(n2Cc2ccc(Cl)cc2)Oc2cccc(c2)COCCOCCn3c(=O)n1CCCO [compound 18],IC50,[13],170 nM
same,fold decrease in activity (vs compound 6),"[13]; calcium flux, SAR",100 fold
O=c1c2c3nc(n2Cc2ccc(Cl)cc2)Oc2cccc(c2)OCCNCCCn3c(=O)n1CCCO [compound 19],IC50,[13],840 nM
same,TRPC5 inhibitory activity in words (SAR),[13]; calcium flux,reduced activity
CC(C)(O)CCn1c(=O)c2c3nc(n2Cc2ccc(Cl)cc2)Oc2cccc(c2)OCCCCCCn3c1=O [compound 20],IC50,[13],10000 nM
CC(O)CCn1c(=O)c2c3nc(n2Cc2ccc(Cl)cc2)Oc2cccc(c2)OCCCCCCn3c1=O (stereo not drawn) [compound 21],IC50,[13],10 nM
same,TRPC5 inhibitory activity in words (SAR),[13]; calcium flux,tolerated
CC(CO)Cn1c(=O)c2c3nc(n2Cc2ccc(Cl)cc2)Oc2cccc(c2)OCCCCCCn3c1=O (stereo not drawn) [compound 22],IC50,[13],220 nM
O=c1c2c3nc(n2Cc2ccc(Cl)cc2)Oc2cccc(c2)OCCCCCCn3c(=O)n1CC(O)CO (stereo not drawn) [compound 23],IC50,[13],790 nM
O=c1c2c3nc(n2Cc2ccc(Cl)cc2)Oc2cccc(c2)OCCCCCCn3c(=O)n1CC(F)(F)CO [compound 24],IC50,[13],440 nM
